Results taken from article PMC5053523, “In Vitro Antibacterial Activity of Rhodanine Derivatives against Pathogenic Clinical Isolates” (PLoS ONE, 2016).
In brackets after ≈: the same amount, converted by molar mass. Where two headings read alike, the source gives them in different places.

Assays:
Format in all cases: cell-based
[1] = system: vancomycin resistant enterococci (VRE); test: Broth microdilution MIC50/MIC90, VRE panel; conditions: Enterococcus, 10 VRE strains
[2] = system: Vancomycin Resistant Staphylococcus aureus (VRSA); test: Broth microdilution MIC/MBC, VRSA; conditions: for MBC / MIC: VRSA
[3] = system: Bacillus anthracis; test: microbe, parasite or virus in culture
[4] = system: B. cereus; test: Broth microdilution MIC/MBC, B. cereus; conditions: Bacillus cereus; for MBC: read-out: MBC; for MIC: read-out: MIC
Source text: The broth microdilution technique was used, followed by subculturing on agar plates that were rhodanine—free.

[5] = system: B. licheniformis; test: Broth microdilution MIC/MBC, B. licheniformis; conditions: Bacillus licheniformis; for MBC: read-out: MBC; for MIC: read-out: MIC
[6] = system: Mycobacterium smegmatis; test: Broth microdilution MIC/MBC, Mycobacterium smegmatis; conditions: Mycolicibacterium smegmatis, ATCC14468, M. Smegmatis ATCC 14468
[7] = system: Acinetobacter baumannii; test: Broth microdilution MIC, Acinetobacter baumannii
[8] = system: Escherichia coli O157:H7; test: MIC with/without sub-MIC colistin, Escherichia coli O157:H7
Procedure, shortened: (§1)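 Compounds plus sub-inhibitory colistin or PMBN; MIC against Gram-negatives, with control antibiotics in parallel.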

[9] = system: Salmonella Typhimurium; test: MIC with/without sub-MIC colistin, Salmonella Typhimurium
Procedure, shortened: as §1

[10] = system: Klebsiella pneumoniae; test: MIC with/without sub-MIC colistin, Klebsiella pneumoniae
Procedure, shortened: as §1

[11] = system: Pseudomonas aeruginosa; test: MIC with/without sub-MIC colistin, Pseudomonas aeruginosa
Procedure, shortened: as §1

[12] = system: Acinetobacter baumannii; test: MIC with/without PMBN, Acinetobacter baumannii
Procedure, shortened: as §1

[13] = system: Escherichia coli O157:H7; test: MIC with/without PMBN, Escherichia coli O157:H7
Procedure, shortened: as §1

[14] = system: Salmonella Typhimurium; test: MIC with/without PMBN, Salmonella Typhimurium
Procedure, shortened: as §1

[15] = system: Escherichia coli Δ acrAB; test: MIC against E. coli 1411 and AcrAB efflux pump deficient E. coli SM1411Δ acrAB
Procedure, shortened: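 Sub-MIC colistin or PMBN added to broth MIC tests of rhodanines and reference antibiotics against Gram-negative strains; AcrAB efflux-deficient E. coli SM1411ΔacrAB also tested.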

[16] = NRS201, B. cereus NRS 201 NR-2488
[17] = NCIB9375, B. licheniformis Gibson 46 (NCIB 9375) NR-2494
[18] = NRS712, B. licheniformis NRS 712 NR-2499
[19] = Salmonella enterica, ATCC 700720 / TYPHIMURIUM

O=C(O)[C@H](Cc1ccccc1)N1C(=O)/C(=C/c2cccc(OC/C=C/c3ccc(Cl)c(Cl)c3)c2)SC1=S [Rh 6]
MIC90 ([1]; VRE, read-out: MIC 90): 8 µM (≈ 4.56 µg/mL)
MIC50 ([1]; read-out: MIC 50): 8 µM (≈ 4.56 µg/mL)
MIC50 ([2]; 15 VRSA strains, read-out: MIC 50): 4 µM (≈ 2.28 µg/mL)
MIC90 ([2]; 15 VRSA strains, read-out: MIC 90): 8 µM (≈ 4.56 µg/mL)
MBC ([2]; VRSA 1, read-out: MBC): > 64 µM
MIC ([2]; VRSA 1, read-out: MIC): 8 µM (≈ 4.56 µg/mL)
MBC ([2]; VRSA 2, read-out: MBC): 8 µM (≈ 4.56 µg/mL)
MIC ([2]; VRSA 2, read-out: MIC): 8 µM (≈ 4.56 µg/mL)
MBC ([2]; VRSA 3a, read-out: MBC): 8 µM (≈ 4.56 µg/mL)
MIC ([2]; VRSA 3a, read-out: MIC): 8 µM (≈ 4.56 µg/mL)
MBC ([2]; VRSA 3b, read-out: MBC): 16 µM (≈ 9.13 µg/mL)
MIC ([2]; VRSA 3b, read-out: MIC): 8 µM (≈ 4.56 µg/mL)
MBC ([2]; VRSA 4, read-out: MBC): 8 µM (≈ 4.56 µg/mL)
MIC ([2]; VRSA 4, read-out: MIC): 4 µM (≈ 2.28 µg/mL)
MBC ([2]; VRSA 5, read-out: MBC): 16 µM (≈ 9.13 µg/mL)
MIC ([2]; VRSA 5, read-out: MIC): 4 µM (≈ 2.28 µg/mL)
MBC ([2]; VRSA 6, read-out: MBC): 32 µM (≈ 18.3 µg/mL)
MIC ([2]; VRSA 6, read-out: MIC): 4 µM (≈ 2.28 µg/mL)
MBC ([2]; VRSA 7, read-out: MBC): 8 µM (≈ 4.56 µg/mL)
MIC ([2]; VRSA 7, read-out: MIC): 8 µM (≈ 4.56 µg/mL)
MBC ([2]; VRSA 8, read-out: MBC): 16 µM (≈ 9.13 µg/mL)
MIC ([2]; VRSA 8, read-out: MIC): 4 µM (≈ 2.28 µg/mL)
MBC ([2]; VRSA 9, read-out: MBC): 16 µM (≈ 9.13 µg/mL)
MIC ([2]; VRSA 9, read-out: MIC): 8 µM (≈ 4.56 µg/mL)
MBC ([2]; VRSA 10, read-out: MBC): 16 µM (≈ 9.13 µg/mL)
MIC ([2]; VRSA 10, read-out: MIC): 4 µM (≈ 2.28 µg/mL)
MBC ([2]; VRSA 11a, read-out: MBC): 64 µM (≈ 36.5 µg/mL)
MIC ([2]; VRSA 11a, read-out: MIC): 4 µM (≈ 2.28 µg/mL)
MBC ([2]; VRSA 11b, read-out: MBC): 32 µM (≈ 18.3 µg/mL)
MIC ([2]; VRSA 11b, read-out: MIC): 4 µM (≈ 2.28 µg/mL)
MBC ([2]; VRSA 12, read-out: MBC): 32 µM (≈ 18.3 µg/mL)
MIC ([2]; VRSA 12, read-out: MIC): 4 µM (≈ 2.28 µg/mL)
MBC ([2]; VRSA 13, read-out: MBC): 32 µM (≈ 18.3 µg/mL)
MIC ([2]; VRSA 13, read-out: MIC): 8 µM (≈ 4.56 µg/mL)
MBC ([3]; Bacillus anthracis AMES35): 2 µM (≈ 1.14 µg/mL)
MIC ([3]; Bacillus anthracis AMES35): 2 µM (≈ 1.14 µg/mL)
MBC ([3]; Bacillus anthracis UM23): 2 µM (≈ 1.14 µg/mL)
MIC ([3]; Bacillus anthracis UM23): 2 µM (≈ 1.14 µg/mL)
MBC ([3]; Bacillus anthracis Weybridge): 2 µM (≈ 1.14 µg/mL)
MIC ([3]; Bacillus anthracis Weybridge): 2 µM (≈ 1.14 µg/mL)
MBC ([4]; B. cereus BAG1O-2 NR-28582): 4 µM (≈ 2.28 µg/mL)
MIC ([4]; B. cereus BAG1O-2 NR-28582): 4 µM (≈ 2.28 µg/mL)
MBC ([4]; B. cereus BAG1X1-1 NR-28575): 4 µM (≈ 2.28 µg/mL)
MIC ([4]; B. cereus BAG1X1-1 NR-28575): 4 µM (≈ 2.28 µg/mL)
MBC ([4]; B. cereus BAG1X2-1 NR-28578): 4 µM (≈ 2.28 µg/mL)
MIC ([4]; B. cereus BAG1X2-1 NR-28578): 4 µM (≈ 2.28 µg/mL)
MBC ([4]; B. cereus G9241 NR-9564): 4 µM (≈ 2.28 µg/mL)
MIC ([4]; B. cereus G9241 NR-9564): 4 µM (≈ 2.28 µg/mL)
MBC ([4]; B. cereus VD014 NR-22141): 4 µM (≈ 2.28 µg/mL)
MIC ([4]; B. cereus VD014 NR-22141): 4 µM (≈ 2.28 µg/mL)
MBC ([4]; B. cereus VD115 NR-22148): 4 µM (≈ 2.28 µg/mL)
MIC ([4]; B. cereus VD115 NR-22148): 4 µM (≈ 2.28 µg/mL)
MBC ([4]; B. cereus VD148 NR-22150): 4 µM (≈ 2.28 µg/mL)
MIC ([4]; B. cereus VD148 NR-22150): 4 µM (≈ 2.28 µg/mL)
MBC [4, 16]: 4 µM (≈ 2.28 µg/mL)
MIC [4, 16]: 4 µM (≈ 2.28 µg/mL)
MBC [5, 17]: 4 µM (≈ 2.28 µg/mL)
MIC [5, 17]: 4 µM (≈ 2.28 µg/mL)
MBC [5, 18]: 4 µM (≈ 2.28 µg/mL)
MIC [5, 18]: 4 µM (≈ 2.28 µg/mL)
MBC ([6]; read-out: MBC): 32 µM (≈ 18.3 µg/mL)
MIC ([6]; read-out: MIC): 16 µM (≈ 9.13 µg/mL)
MIC ([7]; ATCC13345): > 128 µM
MIC ([7]; ATCC17786): > 128 µM
MIC ([8]; Escherichia coli O157:H7 ATCC 35150, colistin (+) […], read-out: MIC): >64 µM
MIC ([8]; Escherichia coli O157:H7 ATCC 700728, colistin (+) […], read-out: MIC): >64 µM
MIC ([8]; Escherichia coli, ATCC35150): > 128 µM
MIC ([8]; Escherichia coli, ATCC700728): > 128 µM
MIC ([9]; Salmonella Typhimurium ATCC 700720, colistin (+) […], read-out: MIC): >64 µM
MIC [9, 19]: > 128 µM
MIC ([10]; Klebsiella pneumoniae ATCC BAA 2146, colistin (+) […]): >64 µM
MIC ([10]; Klebsiella pneumoniae, BAA2146): > 128 µM
MIC ([11]; Pseudomonas aeruginosa ATCC 921, colistin (+) […], read-out: MIC): >64 µM
MIC ([11]; Pseudomonas aeruginosa, ATCC921): > 128 µM
MIC ([12]; Acinetobacter baumannii ATCC BAA747, PMBN (+) 4 μg/mL, read-out: MIC): >64 µM
MIC ([12]; Acinetobacter baumannii ATCC BAA19606, PMBN (+) 4 μg/mL, read-out: MIC): >64 µM
MIC ([12]; Acinetobacter baumannii, ATCCBAA747): > 128 µM
MIC ([12]; Acinetobacter baumannii, ATCCBAA19606): > 128 µM
MIC ([13]; Escherichia coli O157:H7 ATCC 35150, PMBN (+) 4 μg/mL, read-out: MIC): 8 µM (≈ 4.56 µg/mL)
MIC ([13]; Escherichia coli O157:H7 ATCC 700728, PMBN (+) 4 μg/mL, read-out: MIC): >64 µM
MIC ([13]; Escherichia coli, ATCC35150): > 256 µM
MIC ([13]; Escherichia coli, ATCC700728): > 128 µM
MIC ([14]; Salmonella Typhimurium ATCC 700720, PMBN (+) 4 μg/mL, read-out: MIC): >128 µM
MIC [14, 19]: > 128 µM
MIC ([15]; E.coli 1411): > 64 µM
MIC ([15]; E.coli 1411 SM (Δ acrAB, AcrAB efflux pump deficient)): > 64 µM
